# Measured values reported in patent publication US20100285145A1, “GPR 119 MODULATORS” (PFIZER INC, priority 2009, published 2010).
# Where “and” joins values, the source holds several entries; their conditions need not be identical. Equal entries are not always repeated.
# Experiments:
# human GPR119 [1] = target: T1, human GPR119 (Homo sapiens, UniProt Q8TDV5); assay: β-Arrestin PathHunter assay (U2OS hGPR119 β-arrestin cells); format: cell-based; conditions: for Emax: U2OS, read-out: Intrinsic Activity (Human B-arrestin); for EC50: read-out: Human B-arrestin Functional EC50
# T1 sequence (Q8TDV5 1-335): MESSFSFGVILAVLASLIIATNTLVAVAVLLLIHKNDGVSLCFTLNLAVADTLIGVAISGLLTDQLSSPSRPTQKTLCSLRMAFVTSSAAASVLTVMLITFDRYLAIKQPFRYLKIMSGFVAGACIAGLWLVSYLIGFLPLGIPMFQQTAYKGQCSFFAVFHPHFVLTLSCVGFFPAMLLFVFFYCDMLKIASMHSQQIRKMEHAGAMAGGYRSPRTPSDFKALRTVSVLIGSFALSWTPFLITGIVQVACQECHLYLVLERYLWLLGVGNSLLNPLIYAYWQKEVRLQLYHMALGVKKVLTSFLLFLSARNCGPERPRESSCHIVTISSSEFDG
# Procedure, shortened: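 Cells carry ProLink-tagged GPR119 and EA-fused β-arrestin; 5000 cells/well were plated overnight in Opti-MEM with 2% charcoal-dextran serum. Compounds were applied for 90 min at 37 °C in HBSS/20 mM HEPES pH 7.0/0.1% BSA (0.5% DMSO), followed by Galacton Star substrate for 60 min at RT and a luminescence read. EC50 came from a 4-parameter logistic fit.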
# human GPR119 [2] = target: T1, human GPR119; assay: cAMP HTRF functional assay (hGPR119 HEK-CRE beta-lactamase cells); format: cell-based; design: host or cells: HEK293-CRE beta-lactamase; conditions: for Emax: read-out: Intrinsic Activity (Human cAMP)
# Procedure, shortened: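 hGPR119 HEK-CRE cells (5000/well), cultured overnight, then treated 30 min at room temperature with compound plus 400 microM IBMX (0.58% DMSO). cAMP measured by competitive HTRF immunoassay after 60 min lysis/detection, converted to nM via standard curve; EC50 from 4-parameter logistic fit.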
# [3] = percent of maximal activity relative to standard GPR119 agonist at 10 micromolar
# [4] = marked **: curve was extrapolated to 100%
# [5] = curve was extrapolated to 100% to calculate an EC50
# [6] = HTRF cAMP, 30 min, 400 microM IBMX, each line a separate determination
# [7] = U2OS hGPR119 β-arrestin cells, 90 min, each line a separate determination
Emax (human GPR119 [1]; [3]) [%],Intrinsic Activity (Human cAMP) (human GPR119 [2]; [3]),Emax (human GPR119 [2]; [3]) [%],Emax (human GPR119 [1]; [4]) [%],EC50 (human GPR119 [1]; [5]) [nM],EC50 (human GPR119 [2]; [6]),EC50 (human GPR119 [2]; [5]),Intrinsic Activity (Human cAMP) (human GPR119 [2]; [4]),Emax (human GPR119 [2]; [4]) [%],EC50 (human GPR119 [1]; [7]),Intrinsic Activity (Human B-arrestin) (human GPR119 [1]; [3]),SMILES
63.5,43.5% and 30.6% and 28.4%,39.1,,,74.5 nM and 68.9 nM and 42.7 nM and 69.8 nM,,,,4.02 nM and 22.9 nM and 5.81 nM and 11 nM,64.2% and 58.1% and 51.4%,"Cc1c(O[C@H]2[C@@H]3COC[C@H]2CN(C(=O)OC2(C)CCC2)C3)ncnc1N1CCc2ncccc21 [Example 27, 1-Methylcyclobutyl (9-anti)-9-{[6-(2,3-dihydro-1H-pyrrolo[3,2-b]pyridin-1-yl)-5-methylpyrimidin-4-yl]oxy}-3-oxa-7-azabicyclo[3.3.1]nonane-7-carboxylate]"
68.6,65.1% and 67.6% and 43.6% and 50%,,,,96.9 nM and 112 nM and 91.1 nM and 163 nM,,,,23.8 nM and 18.2 nM and 21.3 nM and 26.3 nM,82.5% and 68.9% and 73.4%,"CCC1(OC(=O)N2C[C@H]3COC[C@@H](C2)[C@H]3Oc2ncnc(N3CCc4ncccc43)c2C)CC1 [Example 26, 1-Ethylcyclopropyl (9-anti)-9-{[6-(2,3-dihydro-1H-pyrrolo-[3,2-b]pyridin-1-yl)-5-methylpyrimidin-4-yl]oxy}-3-oxa-7-azabicyclo[3.3.1]nonane-7-carboxylate]"

# Continued, compound first:
SMILES,Emax (human GPR119 [1]; [3]) [%],Intrinsic Activity (Human cAMP) (human GPR119 [2]; [3]),Emax (human GPR119 [2]; [3]) [%],Emax (human GPR119 [1]; [4]) [%],EC50 (human GPR119 [1]; [5]) [nM],EC50 (human GPR119 [2]; [6]),EC50 (human GPR119 [2]; [5]),Intrinsic Activity (Human cAMP) (human GPR119 [2]; [4]),Emax (human GPR119 [2]; [4]) [%],EC50 (human GPR119 [1]; [7]),Intrinsic Activity (Human B-arrestin) (human GPR119 [1]; [3])
"Cc1c(O[C@@H]2[C@@H]3COC[C@H]2CN(C(=O)OC(C)C)C3)ncnc1N1CCc2cc(S(C)(=O)=O)ccc21 [Example 23, Isopropyl (9-syn)-9-({5-methyl-6-[5-(methylsulfonyl)-2,3-dihydro-1H-indol-1-yl]pyrimidin-4-yl}oxy)-3-oxa-7-azabicyclo[3.3.1]nonane-7-carboxylate]",51.6,27.9% and 29.5% and 16.7%,26.3,,,,,,,,
"CC(C)OC(=O)N1CCC(Oc2cc(N3CCc4ncccc43)ncn2)CC1 [Example 12, Isopropyl 4-{[6-(2,3-dihydro-1H-pyrrolo[3,2-b]pyridin-1-yl)pyrimidin-4-yl]oxy}piperidine-1-carboxylate]",,56.5% (2×) and 53.6% and 44%,56,100,2570,784 nM and 1140 nM and 1180 nM and 331 nM and 792 nM,8150 nM and 9620 nM and 8350 nM and 9480 nM,100** %,100,,
"CC(C)OC(=O)N1CCC(Oc2cc(N3CCc4cc(S(C)(=O)=O)ccc43)ncn2)CC1 [Example 3, Isopropyl 4-({6-[5-(methylsulfonyl)-2,3-dihydro-1H-indol-1-yl]pyrimidin-4-yl}oxy)piperidine-1-carboxylate]",,107%,,,,28.8 nM and 126 nM and 225 nM and 199 nM and 49.4 nM and 152 nM and 63.7 nM and 202 nM and 201 nM and 104 nM,,,,22.1 nM and 14.9 nM and 72.2 nM,75.8% and 62.2% and 87.9%
"Cc1c(O[C@H]2CCN(C(=O)OC3(C)CC3)C[C@H]2F)ncnc1N1CCc2ncccc21 [Example 17, 1-Methylcyclopropyl (3R,4S)-4-{[6-(2,3-dihydro-1H-pyrrolo[3,2-b]pyridin-1-yl)-5-methylpyrimidin-4-yl]oxy}-3-fluoropiperidine-1-carboxylate]",,69.6% and 48.7% and 53.8% and 63.9% and 53.1% and 48.5%,,,,19 nM and 28.5 nM and 13.7 nM and 14.8 nM and 16.9 nM and 19.4 nM,,,,2.13 nM and 5.86 nM and 6.62 nM and 5.05 nM and 4.7 nM,68.9% and 54.3% and 59.2% and 52.8% and 76.9%
